Test results reported in patent US4971965A, “Antibiotics TAN-1057” (Takeda Chemical Industries, Ltd., priority 1988, dated 1990).
Counter-ions that a name gives are not always drawn.

Tests used:
Solubility = assay type: physicochemical
Acidity or basicity = assay type: physicochemical
[1] = tested on: Staphylococcus aureus C10; assay: Antibacterial activity against clinically isolated S. aureus (agar dilution MIC, Table 2); assay type: cell-based; conditions: strain C10; agar dilution; Mueller Hinton medium; 10^6 CFU/ml
Procedure: (§1) DMPPC: Methicillin, KM: Kanamycin, GM: Gentamycin, EM: Erythromycin (Note
(§2) Determined by the agar dilution method. Medium: Mueller Hinton medium
(§3) (Difco, USA) Inoculum Size: 10^6 CFU/ml, 37° C.

Staphylococcus aureus C3 = assay: as above; assay type: cell-based; conditions: strain C3; agar dilution; Mueller Hinton medium; 10^6 CFU/ml
Procedure: as §1, §2, §3

Staphylococcus aureus C4 = assay: as above; assay type: cell-based; conditions: strain C4; agar dilution; Mueller Hinton medium; 10^6 CFU/ml
Procedure: as §1, §2, §3

Staphylococcus aureus C7 = assay: as above; assay type: cell-based; conditions: strain C7; agar dilution; Mueller Hinton medium; 10^6 CFU/ml
Procedure: as §1, §2, §3

[2] = tested on: Staphylococcus aureus FDA 209P; assay: as above; assay type: cell-based; conditions: strain FDA 209P; agar dilution; Mueller Hinton medium; 10^6 CFU/ml
Procedure: as §1, §2, §3

[3] = tested on: Staphylococcus aureus N121; assay: as above; assay type: cell-based; conditions: strain N121; agar dilution; Mueller Hinton medium; 10^6 CFU/ml
Procedure: as §1, §2, §3

[4] = tested on: Staphylococcus aureus N129; assay: as above; assay type: cell-based; conditions: strain N129; agar dilution; Mueller Hinton medium; 10^6 CFU/ml
Procedure: as §1, §2, §3

[5] = tested on: Staphylococcus aureus N176-3; assay: as above; assay type: cell-based; conditions: strain N176-3; agar dilution; Mueller Hinton medium; 10^6 CFU/ml
Procedure: as §1, §2, §3

[6] = tested on: Staphylococcus aureus N176-6; assay: as above; assay type: cell-based; conditions: strain N176-6; agar dilution; Mueller Hinton medium; 10^6 CFU/ml
Procedure: as §1, §2, §3

[7] = tested on: Staphylococcus aureus N176; assay: as above; assay type: cell-based; conditions: strain N176; agar dilution; Mueller Hinton medium; 10^6 CFU/ml
Procedure: as §1, §2, §3

[8] = tested on: Staphylococcus aureus N235; assay: as above; assay type: cell-based; conditions: strain N235; agar dilution; Mueller Hinton medium; 10^6 CFU/ml
Procedure: as §1, §2, §3

[9] = tested on: Staphylococcus aureus N237; assay: as above; assay type: cell-based; conditions: strain N237; agar dilution; Mueller Hinton medium; 10^6 CFU/ml
Procedure: as §1, §2, §3

[10] = tested on: Staphylococcus aureus N247-16; assay: as above; assay type: cell-based; conditions: strain N247-16; agar dilution; Mueller Hinton medium; 10^6 CFU/ml
Procedure: as §1, §2, §3

[11] = tested on: Staphylococcus aureus N247-21; assay: as above; assay type: cell-based; conditions: strain N247-21; agar dilution; Mueller Hinton medium; 10^6 CFU/ml
Procedure: as §1, §2, §3

[12] = tested on: Staphylococcus aureus N247; assay: as above; assay type: cell-based; conditions: strain N247; agar dilution; Mueller Hinton medium; 10^6 CFU/ml
Procedure: as §1, §2, §3

[13] = tested on: Staphylococcus aureus N262; assay: as above; assay type: cell-based; conditions: strain N262; agar dilution; Mueller Hinton medium; 10^6 CFU/ml
Procedure: as §1, §2, §3

[14] = tested on: Staphylococcus aureus N267; assay: as above; assay type: cell-based; conditions: strain N267; agar dilution; Mueller Hinton medium; 10^6 CFU/ml
Procedure: as §1, §2, §3

[15] = tested on: Staphylococcus aureus N28; assay: as above; assay type: cell-based; conditions: strain N28; agar dilution; Mueller Hinton medium; 10^6 CFU/ml
Procedure: as §1, §2, §3

[16] = tested on: Staphylococcus aureus N326; assay: as above; assay type: cell-based; conditions: strain N326; agar dilution; Mueller Hinton medium; 10^6 CFU/ml
Procedure: as §1, §2, §3

[17] = tested on: Staphylococcus aureus N51; assay: as above; assay type: cell-based; conditions: strain N51; agar dilution; Mueller Hinton medium; 10^6 CFU/ml
Procedure: as §1, §2, §3

[18] = tested on: Staphylococcus aureus N62; assay: as above; assay type: cell-based; conditions: strain N62; agar dilution; Mueller Hinton medium; 10^6 CFU/ml
Procedure: as §1, §2, §3

[19] = tested on: Staphylococcus aureus N64; assay: as above; assay type: cell-based; conditions: strain N64; agar dilution; Mueller Hinton medium; 10^6 CFU/ml
Procedure: as §1, §2, §3

[20] = tested on: Staphylococcus aureus N83; assay: as above; assay type: cell-based; conditions: strain N83; agar dilution; Mueller Hinton medium; 10^6 CFU/ml
Procedure: as §1, §2, §3

Staphylococcus aureus N8 = assay: as above; assay type: cell-based; conditions: strain N8; agar dilution; Mueller Hinton medium; 10^6 CFU/ml
Procedure: as §1, §2, §3

[21] = tested on: Staphylococcus aureus N91; assay: as above; assay type: cell-based; conditions: strain N91; agar dilution; Mueller Hinton medium; 10^6 CFU/ml
Procedure: as §1, §2, §3

[22] = tested on: Staphylococcus aureus TS-65; assay: as above; assay type: cell-based; conditions: strain TS-65; agar dilution; Mueller Hinton medium; 10^6 CFU/ml
Procedure: as §1, §2, §3

[23] = tested on: Staphylococcus aureus TST-75; assay: as above; assay type: cell-based; conditions: strain TST-75; agar dilution; Mueller Hinton medium; 10^6 CFU/ml
Procedure: as §1, §2, §3

CN(C(=O)C[C@@H](N)CCCNC(=N)N)[C@H]1CNC(NC(N)=O)=NC1=O [TAN-1057A trihydrochloride]
Solubility (Solubility; acetone): Sparingly soluble
Solubility (Solubility; diethyl ether): Sparingly soluble
Solubility (Solubility; dimethylsulfoxide): Soluble
Solubility (Solubility; ethyl acetate): Sparingly soluble
Solubility (Solubility; methanol): Soluble
Solubility (Solubility; water): Readily soluble
Acidity or basicity (Acidity or basicity): neutral

CN(C(=O)C[C@@H](N)CCCNC(=N)N)[C@@H]1CNC(NC(N)=O)=NC1=O [TAN-1057B dihydrochloride]
Solubility (Solubility; acetone): Sparingly soluble
Solubility (Solubility; diethyl ether): Sparingly soluble
Solubility (Solubility; dimethylsulfoxide): Soluble
Solubility (Solubility; ethyl acetate): Sparingly soluble
Solubility (Solubility; methanol): Soluble
Solubility (Solubility; water): Readily soluble
Acidity or basicity (Acidity or basicity): neutral

Gentamycin [GM]
MIC [1]: > 100 µg/mL
MIC (Staphylococcus aureus C3): 100 µg/mL
MIC (Staphylococcus aureus C4): 50 µg/mL
MIC (Staphylococcus aureus C7): > 100 µg/mL
MIC [2]: ≤ 0.20 µg/mL
MIC [3]: > 100 µg/mL
MIC [4]: 50 µg/mL
MIC [5]: 0.39 µg/mL
MIC [6]: 0.39 µg/mL
MIC [7]: 0.39 µg/mL
MIC [8]: > 100 µg/mL
MIC [9]: > 100 µg/mL
MIC [10]: 100 µg/mL
MIC [11]: 50 µg/mL
MIC [12]: 50 µg/mL
MIC [13]: 50 µg/mL
MIC [14]: 100 µg/mL
MIC [15]: 0.39 µg/mL
MIC [16]: > 100 µg/mL
MIC [17]: 0.39 µg/mL
MIC [18]: 3.13 µg/mL
MIC [19]: 0.78 µg/mL
MIC [20]: ≤ 0.20 µg/mL
MIC (Staphylococcus aureus N8): ≤ 0.20 µg/mL
MIC [21]: 0.39 µg/mL
MIC [22]: 100 µg/mL
MIC [23]: > 100 µg/mL
